For assay [1], the system named is FIP200 and ATG13 KO HeLa cells. Description: Immunoblot of HER2 in FIP200 KO and ATG13 KO HeLa cells treated with MG132 (FIG. 3D). In kind it is cell-based. The note with it: MG132 10 μM for 6 hours. The procedure: FIG. 3D. Immunoblots showing levels of HER2, ubiquitin and GAPDH in WT, FIP200 KO and Atg13 KO HeLa cells treated with DMSO and MG132 (10 μM) for 6 hours.
CRISPR/Cas9-mediated knockout of FIP200 or ATG13 in HeLa and MCF-7 cells and knockdown of Atg5 in HER2 tumor cells: The pX458 plasmid, pSpCas9(BB)-2A-GFP (PX458) was a gift from Feng Zhang, Addgene plasmid # 48138 was used as the cloning backbone for expressing sgFIP200 and sgATG13. The sgRNA sequences of FIP200 and ATG13 are as follows:
(§1) Western blot: Cells were cultured in 3.5 cm diameter plates (80-90% confluence), washed by PBS buffer, and lysed for 15 min on ice using a RIPA buffer (#C2978, Sigma) containing an anti-protease mix (#PI78415, Thermo Scientific). Protein concentration was measured by BCA assay (#23225, Thermo Scientific). […]
To further investigate regulation of HER2 by autophagy, mRNA levels of HER2 in mammary tumor and HeLa cells with or without autophagy inhibition were examined. […] Next, HER2 protein stability was analyzed and a decreased half-life of HER2 protein in Fip200−/− tumor cells (˜3 hrs) relative to Fip200+/+tumor cells (˜5 hrs) (FIGS. 3A and 3B) was observed. MG132 was used to inhibit proteasome-mediated protein degradation and its effect on HER2 protein levels in autophagy deficient HER2 tumor and HeLa cells was determined.

For assay [2], the system named is Fip200−/− tumor cells. Description: Immunoblot of HER2 in Fip200-/- tumor cells treated with MG132 (FIG. 3C). In kind it is cell-based, mouse. Conditions: MG132 10 μM for 6 hours. How it is done:
FIG. 3C. Immunoblots showing levels of HER2, ubiquitin and GAPDH in Fip200+/+ and Fip200−/− cells treated with DMSO and MG132 (10 μM) for 6 hours.
Cell lines and culture: Primary HER2 tumor cells from FIP200f/f; MMTV-Neu mice (N148 and N418 cells) were isolated and cultured in DMEM/F12 supplemented with 10% FBS, 10 ng/mL EGF, […], and 50 units/mL penicillin-streptomycin. HER2 tumor cells were then infected with recombinant retroviruses encoding CreERT2 and deletion of Fip200 was induced by culturing with 100 nmol/L 4-hydroxytamoxifen (4-OHT). HeLa and MCF-7 cells were obtained from ATCC and maintained in DMEM supplemented with 10% FBS. FIP200 KO and control WT MEF cells have been described previously.
as §1
To further investigate regulation of HER2 by autophagy, mRNA levels of HER2 in mammary tumor and HeLa cells with or without autophagy inhibition were examined. […] Next, HER2 protein stability was analyzed and a decreased half-life of HER2 protein in Fip200−/− tumor cells (˜3 hrs) relative to Fip200+/+tumor cells (˜5 hrs) (FIGS. 3A and 3B) was observed. […]
On the technique in general: In western blotting, separated proteins are transferred to a membrane and probed.

For assay [3], the system named is HeLa cells. In words: Immunoblot of HER2 levels in HeLa cells treated with autophagy inhibitors (FIG. 2I). In kind it is cell-based. The note with it: 48 hrs, chloroquine 50 μM, bafilomycin 200 nM, 3-MA 5 mM, spautin-1 10 μM. How it is done: FIG. 2I. Immuno-blots showing levels of HER2 and GAPDH in HeLa cells treated by HBSS starvation, chloroquine (50 μM), bafilomycin (200 nM), 3-methyladenine (3-MA) (5 mM) and spautin-1 (10 μM) for 48 hrs.
(§2) Western blot: Cells were cultured in 3.5 cm diameter plates (80-90% confluence), washed by PBS buffer, and lysed for 15 min on ice using a RIPA buffer (#C2978, Sigma) containing an anti-protease mix (#PI78415, Thermo Scientific). Protein concentration was measured by BCA assay (#23225, Thermo Scientific). Equal amounts of proteins were subjected to SDS-PAGE and immunoblotting as described previously (Wei et al., 2011).
To further evaluate the role of autophagy in the regulation of HER2 levels, shRNA was used to knockdown expression of another essential autophagy gene, Atg5, in the two lines of HER2 tumor cells (FIGS. 2F and 2G). […] Further, decreased HER2 levels upon FIP200 deletion was due to autophagy blockade, rather than the loss of other activities of FIP200, in HER2-driven mammary tumor cells, which was consistent with the similar phenotypes of cKO and cKI mice.

Assay [4] concerns FIP200 and ATG13 KO HeLa cells. Description: Immunoblot of HER2 in FIP200 KO and ATG13 KO HeLa cells treated with Dynasore (FIG. 13C). In kind it is cell-based. Conditions: 20 μM Dynasore for 24 hours. How it is done:
FIG. 13C. Immuno-blots showing levels of HER2 and GAPDH in WT, FIP200 KO and ATG13 KO HeLa cells with or without treatment of 20 μM Dynasore for 24 hours, as indicated.
as §2
To test the above possibility directly, endocytosis of HER2 in HeLa cells with or without autophagy blockade was examined. […] In addition to endocytosis from the plasma membrane, proteins from the Golgi could be transported through endosomes to the lysosome or other compartments. […] Co-expression of mTurquoise2-beta-1,4-galactosyltransferase 1 (which constitutively expresses in the Golgi) in these cells further supported accumulation of HER2 in the Golgi of FIP200 and ATG13 KO HeLa cells (FIG. 4E).

Peptide text beside a SMILES is read from it. * marks the point of attachment. Cbz = O=C(OCc1ccccc1)*

Turning to `CC(C)C[C@@H](C=O)NC(=O)[C@H](CC(C)C)NC(=O)[C@H](CC(C)C)NC(=O)OCc1ccccc1` [MG132] (Cbz-Leu-Leu-Leu-aldehyde), the “reversal of reduced levels of HER2 protein” value in assay [1] and in assay [2] was “did not significantly reverse the reduced levels of HER2 protein” each time.

On to `CCN(CC)CCCC(C)Nc1ccnc2cc(Cl)ccc12` (centres unmarked) [chloroquine], for which, in assay [3], the “levels of HER2” value was “reduced HER2 levels”.

Consider `CO/C1=C\C(C)=C\[C@@H](C)[C@@H](O)[C@@H](C)C/C(C)=C/C=C/[C@H](OC)[C@@H]([C@@H](C)[C@@H](O)[C@H](C)[C@@]2(O)C[C@@H](O)[C@H](C)[C@@H](C(C)C)O2)OC1=O` [bafilomycin Al, Bafilomycin A1], for which, in assay [3], the “levels of HER2” value is recorded as “reduced HER2 levels”.

With `O=C(N/N=C/c1ccc(O)c(O)c1)c1cc2ccccc2cc1O` [Dynasore], the “rescue of decreased level of HER2” value in assay [4] is given as “did not rescue the decreased level of HER2”.

For the origin of these results see patent publication US20230054039A1, “METHOD OF TREATING HER2-POSITIVE BREAST CANCER” (University of Cincinnati, priority 2021, published 2023).
